Test results as given in US5051417A, “Indolythiadiazines for treating heart failure” (Les Laboratoires Beecham S.A., priority 1988, dated 1991).

Columns and labels:
canine cardiac PDE, CAM = experiment: Canine cardiac PDE inhibition, CAM; format: biochemical; conditions: n in table
canine cardiac PDE, CGI = biological target: T1, canine cardiac PDE, CGI (Canis lupus familiaris, UniProt A0A8I3NYE0); experiment: Canine cardiac PDE inhibition, CGI; format: biochemical; conditions: n in table
T1 construct: CANINE CARDIAC PDE; from tissue; host or cells: dog heart
T1 sequence (A0A8I3NYE0 1-1135): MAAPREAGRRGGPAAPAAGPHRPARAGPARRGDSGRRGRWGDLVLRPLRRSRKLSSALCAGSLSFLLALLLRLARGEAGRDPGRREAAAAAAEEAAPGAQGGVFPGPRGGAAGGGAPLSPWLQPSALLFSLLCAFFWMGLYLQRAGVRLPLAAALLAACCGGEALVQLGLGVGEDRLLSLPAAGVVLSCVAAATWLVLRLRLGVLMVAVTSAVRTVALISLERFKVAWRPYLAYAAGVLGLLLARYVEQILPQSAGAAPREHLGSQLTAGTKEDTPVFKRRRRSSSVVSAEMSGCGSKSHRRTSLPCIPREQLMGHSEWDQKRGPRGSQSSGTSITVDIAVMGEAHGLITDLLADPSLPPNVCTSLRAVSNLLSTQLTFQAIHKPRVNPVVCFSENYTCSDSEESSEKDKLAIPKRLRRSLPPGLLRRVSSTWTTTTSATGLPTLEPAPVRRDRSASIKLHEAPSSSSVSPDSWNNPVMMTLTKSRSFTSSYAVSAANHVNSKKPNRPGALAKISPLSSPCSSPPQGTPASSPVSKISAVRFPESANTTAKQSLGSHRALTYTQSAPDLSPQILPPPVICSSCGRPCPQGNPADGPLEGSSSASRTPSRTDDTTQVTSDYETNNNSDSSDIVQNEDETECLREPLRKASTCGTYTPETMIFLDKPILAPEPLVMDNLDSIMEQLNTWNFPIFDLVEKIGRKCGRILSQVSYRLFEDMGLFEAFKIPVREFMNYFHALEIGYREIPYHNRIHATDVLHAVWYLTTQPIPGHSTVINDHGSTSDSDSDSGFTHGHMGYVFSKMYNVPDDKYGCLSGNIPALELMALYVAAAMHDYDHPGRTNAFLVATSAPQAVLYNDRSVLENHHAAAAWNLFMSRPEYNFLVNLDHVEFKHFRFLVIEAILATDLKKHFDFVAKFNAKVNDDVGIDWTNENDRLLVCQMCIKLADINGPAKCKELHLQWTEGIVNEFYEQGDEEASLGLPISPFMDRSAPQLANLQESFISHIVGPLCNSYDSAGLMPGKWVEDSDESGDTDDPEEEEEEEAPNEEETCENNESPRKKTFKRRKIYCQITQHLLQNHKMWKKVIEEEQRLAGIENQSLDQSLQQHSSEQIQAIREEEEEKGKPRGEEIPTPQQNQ

[1] = test system: canine cardiac myofibrillar Ca++-dependent Mg++-ATPase; experiment: Measurement of myofibrillar Ca++-dependent Mg++-ATPase activity on canine cardiac myofibrils; format: biochemical; conditions: pH 7.0, 21° C.; for max (percent change of maximal ATPase activity): pCa=5.47
Experimental: 1. Measurement of myofibrillar Ca++-dependent Mq++-ATPase activity The effect on myofibrillar Ca++sensitivity and on maximal activity of myofibrillar Ca++-dependent Mg++-ATPase was determined on canine cardiac myofibrils. (a) Contractile protein preparation Cardiac myofibrils free of membrane contaminants were prepared from left ventricular tissue of dog hearts using a modification of the method described by SOLARO et al, Biochem. Biophys. Acta, 245, 259-262, (1971). Before centrifugation, the heart homogenate was filtered through gauze. After Triton X-100 treatments, the myofibrillar fraction was washed once by resuspension and centrifugation in 10 volumes of 1 mM EGTA, […], 30 mM imidazole, 2 mM MgCl2, pH 7.0. The pellet was then washed three times in 10 volumes of the same buffer without EGTA. Before the last centrifugation, the suspension of myofibrils was filtered through a stainless steel sieve with 0.25 mm meshes. Myofibrils were kept in pellet overnight. Before use, the pellet was suspended in a small amount of buffer, the protein concentration was determined by the method of BRADFORD M., Anal. Biochem., 1976, 72, 248 and adjusted in order to have a concentration between 6 and 7 mg/ml. (b) Myofibrillar ATPase activity Ca++-dependent myfibrillar ATPase activity was determined at 21° C., pH 7.0, by measuring the rate of release of inorganic phosphate. All assays were performed within 24hrs. of final purification, using the method described by SOLARO and […]., 51. 290-4,(1982). Reaction mixtures (4 ml) containing 0.6-0.7 mg/ml myofibrillar protein, 80mM KCl, 20 mM imidazole, 3 mM MgCl2, 1 mM EGTA, the desired amount of CaCl2, and the indicated concentration of drug or appropriate vehicle were preincubated for 6 min. prior to assay. The amount of CaCl2 was varied between 0 and 0.9 mM and the pCa (-log free Ca++) computed using 2.514×10^6 M^-1 as the apparent affinity of Ca++for EGTA at pH 7.0. Reactions were initiated by the addition of Na2 ATP to final concentration of 2 mM. After an incubation period of 12 min., reactions were quenched by the addition of an equal volume of ice-cold 10% trichloroacetic acid. The protein was pelleted by centrifugation (2000 g, 15 min.) and Pi was assayed in the supernatant fraction using a modification of the method described by LANZETTA et al, Anal. Biochem., 100, 95-97, (1979). The following solutions were prepared: (1) 3.7% ammonium heptamolybdate in 0.12 N H2 SO4 (2) 0.074% malachite green oxalate in 1% polyvinylic alcohol. The colour reagent was prepared by mixing an equal volume of solution (1) and (2) 15 min. before the assay. For the assay, 1,700 μl of 1% H2 SO4 and 1 ml of colour reagent were added to 100 μl of sample. Colour development occurred at room temperature for 30 min. and was quenched by the addition of 200 μl of 1M tri-potassium citrate. The absorbance was measured at 620 millimicrons. The effect of each compound, tested at the indicated concentration, on the relation between pCa and percent activation was determined taking 100% for the maximum ATPase activity obrained with vehicle alone. The effect on Ca++sensitivity was quantified by measuring the shift of the pCa giving 50% of the maximal control ATPase activity. The effect on maximal ATPase activity was expressed as the percent change of ATPase activity for pCa=5.47. Mean effects on myofibrillar ATPase activity were obtained from 1 to 5 preparations, (compounds tested at 2×10^-4 M).

anaesthetised dog = experiment: Cardiotonic activity in the dog (haemodynamics); format: in vivo, dog (male Beagle); conditions: i.v.
[2] = Stability in presence of air; format: physicochemical; conditions: free base
Experimental: However, the compounds can usually be stabilised by converting them to a salt form.
1 g (2.8mmol) 1,3-Dihydro-5-(3,6-dihydro-6-methyl-2-oxo-2H -1,3,4-thiadiazin-5-yl)-3-phenylimino-2H-indol-2-one (E6) and 1.87 g (28mmol) powdered zinc in 20 ml glacial acetic acid were refluxed for 10 minutes. The excess of zinc was removed by filtration and washed with acetic acid. 100 ml water were added to the filtrate and the precipitate was filtered, washed with water until neutral, and dried under vacuum. […] The crystals of the free base were suspended in a 1/5 mixture of methanol/ethyl ether (30 ml) and about 5 ml of a saturated solution of HCl gas in ethyl ether were added. After 1 hour of stirring, the white precipitate was filtered off, washed with ether and dried.

## CON=C1C(=O)Nc2ccc(C3=NNC(=O)SC3C)cc21 (centres unmarked) [Example 2, 1,3-Dihydro-5-(3,6-dihydro-6-methyl-2-oxo-2H,1,3,4 thiadiazin-5-yl)-3-methoxyimino-2H-indol-2-one]
Canine cardiac PDE, CAM
  IC50: 6.9 µM
Canine cardiac PDE, CGI
  IC50: 1.3 µM
[1]; 10 μM
  max (percent change of maximal ATPase activity): +5 ± 2%
  pCa (shift of the pCa giving 50% of the maximal control ATPase activity; Ca++ sensitivity): 0.24 ± 0.01
[1]; 30 μM
  max (percent change of maximal ATPase activity): +13 ± 4%
  pCa (shift of the pCa giving 50% of the maximal control ATPase activity; Ca++ sensitivity): 0.60 ± 0.11
Anaesthetised dog; 0.1 mg/kg
  AoBF: +8 ± 2%
  AoBP: +4 ± 2%
  H.R.: +13 ± 8%
  dP/dt Max: +31 ± 9%
Anaesthetised dog; 0.3 mg/kg
  AoBF: +16 ± 1%
  AoBP: -9 ± 1%
  H.R.: +26 ± 10%
  dP/dt Max: +54 ± 20%
Anaesthetised dog; 1.0 mg/kg
  AoBF: +33 ± 5%
  AoBP: -20 ± 5%
  H.R.: +55 ± 21%
  dP/dt Max: +128 ± 56%

## CC1SC(=O)NN=C1c1ccc2c(c1)C(Nc1ccccc1)C(=O)N2.Cl (centres unmarked) [Example 8, 1,3-Dihydro-5-(3,6-dihydro-6-methyl-2-oxo-2H-1,3,4-thiadiazin-5-yl)-3-phenylamino-2H-indol-2-one, hydrochloride]
Canine cardiac PDE, CAM
  IC50: 19 µM
Canine cardiac PDE, CGI
  IC50: 1.2 µM
[1]; 30 μM
  max (percent change of maximal ATPase activity): 2 ± 3%
  pCa (shift of the pCa giving 50% of the maximal control ATPase activity; Ca++ sensitivity): +0.87 ± 0.01
[2]
  stability in presence of air: reverts to the starting material in presence of air

## CC1SC(=O)NN=C1c1ccc2c(c1)C(=NO)C(=O)N2 (centres unmarked) [Example 1, 1,3-Dihydro-5-(3,6-dihydro-6-methyl-2-oxo-2H-1,3,4-thiadiazin-5-yl)-3-hydroxyimino-2H-indol-2-one]
Canine cardiac PDE, CAM
  IC50: 7.9 µM
Canine cardiac PDE, CGI
  IC50: 0.66 µM
[1]; 10 μM
  max (percent change of maximal ATPase activity): +5 ± 0%
  pCa (shift of the pCa giving 50% of the maximal control ATPase activity; Ca++ sensitivity): 0.19 ± 0.09
[1]; 30 μM
  max (percent change of maximal ATPase activity): +1 ± 2%
  pCa (shift of the pCa giving 50% of the maximal control ATPase activity; Ca++ sensitivity): 0.25 ± 0.07
Anaesthetised dog; 0.1 mg/kg
  AoBF: +8%
  AoBP: +4%
  H.R.: +13%
  dP/dt Max: +31%
Anaesthetised dog; 0.3 mg/kg
  AoBF: +16%
  AoBP: -9%
  H.R.: +30%
  dP/dt Max: +54%
Anaesthetised dog; 1.0 mg/kg
  AoBF: +33%
  AoBP: -20%
  H.R.: +55%
  dP/dt Max: 128%
